Experimental data from paper PMC11992225, “Antibacterial compounds against non-growing and intracellular bacteria” (npj Antimicrobials and Resistance, 2025).
Values joined by “and” are separate entries in the source; they are usually repeats but may differ in a detail not shown here. Equal entries are not always repeated.

Tests used:
non-growing UPEC CFT073 = assay: Dose-dependent killing analysis (CFU spot-plating) of stationary-phase UPEC; assay type: cell-based, Escherichia coli; conditions: for log10(CFU/ml) after treatment: individual replicates
How it was run: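 Killing assessed by CFU counts: overnight 37 °C LB agar spot plates (10 μl drops of 10-fold PBS dilutions) scored at the lowest dilution with distinct colonies. Samples were compound-treated non-growing UPEC CFT073, 200 μl per well. Performed as three biological replicates.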

[1] = tested on: non-growing S. aureus DSM2569; assay: Dose-dependent killing analysis (CFU spot-plating) of stationary-phase S. aureus; assay type: cell-based, Staphylococcus aureus; conditions: for log10(CFU/ml) after treatment / log10(CFU/ml) after treatment, single replicates / Killing: average Δlog10(CFU/ml): S. aureus; for log10(CFU/ml) after treatment: individual replicates; for Killing: average Δlog10(CFU/ml): vs 9,097 before treatment
How it was run: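 Survival was scored as CFU after overnight growth at 37 °C on LB agar, using spots from 10-fold PBS dilutions of treated cultures. Non-growing S. aureus DSM2569 had been exposed to compound for 24 h in 1:4 CA-MHB, pH 7.4. Three biological replicates were run.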

[2] = tested on: non-growing P. aeruginosa DSM1117; assay: Dose-dependent killing analysis (CFU spot-plating) of stationary-phase P. aeruginosa; assay type: cell-based, Pseudomonas aeruginosa; conditions: for log10(CFU/ml) after treatment / killing, average Δlog10(CFU/ml) / Killing: average Δlog10(CFU/ml) / log10(CFU/ml) after treatment, single replicates: P. aeruginosa; for log10(CFU/ml) after treatment: individual replicates; for Killing: average Δlog10(CFU/ml): vs 8.887 before treatment
How it was run: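 Viability by CFU: samples serially diluted 10-fold in PBS, spotted on LB agar, grown overnight at 37 °C, and colonies counted at the lowest resolvable dilution. Non-growing P. aeruginosa DSM1117 had been dosed for 24 h in 1:4 CA-MHB (pH 7.4); three biological replicates.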

[3] = E. coli in 1:4 CA-MHB (pH 7.4), concentration 0.25
[4] = E. coli in 1:4 CA-MHB (pH 7.4), concentration 0.5
[5] = E. coli in 1:4 CA-MHB (pH 7.4), concentration 1
[6] = E. coli in 1:4 CA-MHB (pH 7.4), concentration 2.5
[7] = E. coli in 1:4 CA-MHB (pH 7.4), concentration 5
[8] = E. coli in LPM (pH 5.5), concentration 0.25
[9] = E. coli in LPM (pH 5.5), concentration 0.5
[10] = E. coli in LPM (pH 5.5), concentration 1
[11] = E. coli in LPM (pH 5.5), concentration 2.5
[12] = E. coli in LPM (pH 5.5), concentration 5

CCCCCCCCN=c1ccn(CCCCCCCCCCn2ccc(=NCCCCCCCC)cc2)cc1 [Octenidine]
log10(CFU/ml) after treatment (non-growing UPEC CFT073; [3]): 9.255 log10(CFU/ml) and 9.041 log10(CFU/ml) and 8.954 log10(CFU/ml) | log10(CFU/ml) after treatment (non-growing UPEC CFT073; [4]): 9.041 log10(CFU/ml) and 9.176 log10(CFU/ml) and 9.301 log10(CFU/ml) | log10(CFU/ml) after treatment (non-growing UPEC CFT073; [5]): 9.146 log10(CFU/ml) and 9.204 log10(CFU/ml) and 9.041 log10(CFU/ml) | log10(CFU/ml) after treatment (non-growing UPEC CFT073; [6]): 9.000 log10(CFU/ml) and 8.903 log10(CFU/ml) and 8.778 log10(CFU/ml) | log10(CFU/ml) after treatment (non-growing UPEC CFT073; [7]): 8.000 log10(CFU/ml) (2×) and 8.146 log10(CFU/ml) | log10(CFU/ml) after treatment (non-growing UPEC CFT073; [8]): 7.301 log10(CFU/ml) and 7.568 log10(CFU/ml) and 7.886 log10(CFU/ml) | log10(CFU/ml) after treatment (non-growing UPEC CFT073; [9]): 7.580 log10(CFU/ml) and 7.447 log10(CFU/ml) and 7.881 log10(CFU/ml) | log10(CFU/ml) after treatment (non-growing UPEC CFT073; [10]): 7.447 log10(CFU/ml) and 7.663 log10(CFU/ml) and 7.778 log10(CFU/ml) | log10(CFU/ml) after treatment (non-growing UPEC CFT073; [11]): 7.491 log10(CFU/ml) and 7.633 log10(CFU/ml) and 7.875 log10(CFU/ml) | log10(CFU/ml) after treatment (non-growing UPEC CFT073; [12]): 7.380 log10(CFU/ml) and 7.663 log10(CFU/ml) and 7.863 log10(CFU/ml) | log10(CFU/ml) after treatment ([1]; concentration 0.1): 8.505 log10(CFU/ml) and 8.653 log10(CFU/ml) and 8.820 log10(CFU/ml) | log10(CFU/ml) after treatment ([1]; concentration 0.5): 8.114 log10(CFU/ml) and 8.380 log10(CFU/ml) and 8.643 log10(CFU/ml) | log10(CFU/ml) after treatment ([1]; concentration 2.5): 6.322 log10(CFU/ml) and 7.690 log10(CFU/ml) and 8.255 log10(CFU/ml) | reduction of non-growing S. aureus ([1]; at 10 µM, 24 h treatment): below the limit of detection | log10(CFU/ml) after treatment ([2]; concentration 0.1): 10.204 log10(CFU/ml) and 9.447 log10(CFU/ml) and 9.415 log10(CFU/ml) | killing, average Δlog10(CFU/ml) ([2]; concentration 0.1, vs CFU before treatment): -0.305 log10(CFU/ml) | log10(CFU/ml) after treatment ([2]; concentration 0.5): 9.146 log10(CFU/ml) and 9.322 log10(CFU/ml) and 9.255 log10(CFU/ml) | killing, average Δlog10(CFU/ml) ([2]; concentration 0.5, vs CFU before treatment): 0.143 log10(CFU/ml) | log10(CFU/ml) after treatment ([2]; concentration 2.5): 9.230 log10(CFU/ml) (2×) and 9.322 log10(CFU/ml) | killing, average Δlog10(CFU/ml) ([2]; concentration 2.5, vs CFU before treatment): 0.123 log10(CFU/ml) | killing, average Δlog10(CFU/ml) ([2]; drug concentration 10): 0.517 log10(CFU/ml)

CO[C@H]1/C=C/O[C@@]2(C)Oc3c(C)c(O)c4c(c3C2=O)C2=NC3(CCN(CC(C)C)CC3)NC2=C(NC(=O)/C(C)=C\C=C\[C@H](C)[C@H](O)[C@@H](C)[C@@H](O)[C@@H](C)[C@H](OC(C)=O)[C@@H]1C)C4=O [Rifabutin]
bactericidal activity against non-growing UPEC (CFU counting) (non-growing UPEC CFT073; 24 h treatment of stationary phase culture): did not kill | log10(CFU/ml) after treatment, single replicates (non-growing UPEC CFT073; [3]): 9.000 log10(CFU/ml) (2×) and 8.699 log10(CFU/ml) | Killing: average Δlog10(CFU/ml) (non-growing UPEC CFT073; E. coli in 1:4 CA-MHB (pH 7.4), concentration 0.25, vs 8.977 before treatment): 0.078 log10(CFU/ml) | log10(CFU/ml) after treatment, single replicates (non-growing UPEC CFT073; [4]): 9.230 log10(CFU/ml) and 8.532 log10(CFU/ml) and 8.699 log10(CFU/ml) | Killing: average Δlog10(CFU/ml) (non-growing UPEC CFT073; E. coli in 1:4 CA-MHB (pH 7.4), concentration 0.5, vs 8.977 before treatment): 0.157 log10(CFU/ml) | log10(CFU/ml) after treatment, single replicates (non-growing UPEC CFT073; [5]): 9.322 log10(CFU/ml) and 8.477 log10(CFU/ml) and 8.301 log10(CFU/ml) | Killing: average Δlog10(CFU/ml) (non-growing UPEC CFT073; E. coli in 1:4 CA-MHB (pH 7.4), concentration 1, vs 8.977 before treatment): 0.277 log10(CFU/ml) | log10(CFU/ml) after treatment, single replicates (non-growing UPEC CFT073; [6]): 8.699 log10(CFU/ml) and 8.505 log10(CFU/ml) and 8.000 log10(CFU/ml) | Killing: average Δlog10(CFU/ml) (non-growing UPEC CFT073; E. coli in 1:4 CA-MHB (pH 7.4), concentration 2.5, vs 8.977 before treatment): 0.576 log10(CFU/ml) | log10(CFU/ml) after treatment, single replicates (non-growing UPEC CFT073; [7]): 9.041 log10(CFU/ml) and 8.447 log10(CFU/ml) and 9.000 log10(CFU/ml) | Killing: average Δlog10(CFU/ml) (non-growing UPEC CFT073; E. coli in 1:4 CA-MHB (pH 7.4), concentration 5, vs 8.977 before treatment): 0.148 log10(CFU/ml) | log10(CFU/ml) after treatment, single replicates (non-growing UPEC CFT073; E. coli in 1:4 CA-MHB (pH 7.4), concentration 10): 8.903 log10(CFU/ml) and 8.176 log10(CFU/ml) and 8.415 log10(CFU/ml) | Killing: average Δlog10(CFU/ml) (non-growing UPEC CFT073; E. coli in 1:4 CA-MHB (pH 7.4), concentration 10, vs 8.977 before treatment): 0.479 log10(CFU/ml) | log10(CFU/ml) after treatment, single replicates (non-growing UPEC CFT073; [8]): 6.954 log10(CFU/ml) and 6.415 log10(CFU/ml) and 7.954 log10(CFU/ml) | Killing: average Δlog10(CFU/ml) (non-growing UPEC CFT073; E. coli in LPM (pH 5.5), concentration 0.25, vs 7.350 before treatment): 0.243 log10(CFU/ml) | log10(CFU/ml) after treatment, single replicates (non-growing UPEC CFT073; [9]): 7.000 log10(CFU/ml) and 6.778 log10(CFU/ml) and 7.663 log10(CFU/ml) | Killing: average Δlog10(CFU/ml) (non-growing UPEC CFT073; E. coli in LPM (pH 5.5), concentration 0.5, vs 7.350 before treatment): 0.203 log10(CFU/ml) | log10(CFU/ml) after treatment, single replicates (non-growing UPEC CFT073; [10]): 6.954 log10(CFU/ml) and 6.398 log10(CFU/ml) and 7.681 log10(CFU/ml) | Killing: average Δlog10(CFU/ml) (non-growing UPEC CFT073; E. coli in LPM (pH 5.5), concentration 1, vs 7.350 before treatment): 0.339 log10(CFU/ml) | log10(CFU/ml) after treatment, single replicates (non-growing UPEC CFT073; [11]): 7.322 log10(CFU/ml) and 6.845 log10(CFU/ml) and 7.623 log10(CFU/ml) | Killing: average Δlog10(CFU/ml) (non-growing UPEC CFT073; E. coli in LPM (pH 5.5), concentration 2.5, vs 7.350 before treatment): 0.087 log10(CFU/ml) | log10(CFU/ml) after treatment, single replicates (non-growing UPEC CFT073; [12]): 6.477 log10(CFU/ml) and 6.845 log10(CFU/ml) and 7.462 log10(CFU/ml) | Killing: average Δlog10(CFU/ml) (non-growing UPEC CFT073; E. coli in LPM (pH 5.5), concentration 5, vs 7.350 before treatment): 0.422 log10(CFU/ml) | log10(CFU/ml) after treatment, single replicates (non-growing UPEC CFT073; E. coli in LPM (pH 5.5), concentration 10): 7.114 log10(CFU/ml) and 6.954 log10(CFU/ml) and 7.633 log10(CFU/ml) | Killing: average Δlog10(CFU/ml) (non-growing UPEC CFT073; E. coli in LPM (pH 5.5), concentration 10, vs 7.350 before treatment): 0.116 log10(CFU/ml) | log10(CFU/ml) after treatment, single replicates ([1]; concentration 0.1): 8.833 log10(CFU/ml) and 8.875 log10(CFU/ml) and 8.763 log10(CFU/ml) | Killing: average Δlog10(CFU/ml) ([1]; concentration 0.1): 0.273 log10(CFU/ml) | log10(CFU/ml) after treatment, single replicates ([1]; concentration 0.5): 8.869 log10(CFU/ml) and 8.996 log10(CFU/ml) and 8.079 log10(CFU/ml) | Killing: average Δlog10(CFU/ml) ([1]; concentration 0.5): 0.449 log10(CFU/ml) | log10(CFU/ml) after treatment, single replicates ([1]; concentration 2.5): 8.763 log10(CFU/ml) and 8.785 log10(CFU/ml) and 8.643 log10(CFU/ml) | Killing: average Δlog10(CFU/ml) ([1]; concentration 2.5): 0.366 log10(CFU/ml) | log10(CFU/ml) after treatment, single replicates ([1]; concentration 10): 8.778 log10(CFU/ml) and 8.806 log10(CFU/ml) and 8.756 log10(CFU/ml) | Killing: average Δlog10(CFU/ml) ([1]; concentration 10): 0.317 log10(CFU/ml) | Killing: average Δlog10(CFU/ml) ([2]; concentration 0.1): 0.484 log10(CFU/ml) | log10(CFU/ml) after treatment, single replicates ([2]; concentration 0.25): 8.477 log10(CFU/ml) and 8.954 log10(CFU/ml) and 7.778 log10(CFU/ml) | Killing: average Δlog10(CFU/ml) ([2]; concentration 0.5): 0.158 log10(CFU/ml) | Killing: average Δlog10(CFU/ml) ([2]; concentration 2.5): 4.469 log10(CFU/ml) | log10(CFU/ml) after treatment, single replicates ([2]; printed on the line of concentration 1): 8.301 log10(CFU/ml) and 9.041 log10(CFU/ml) and 8.845 log10(CFU/ml) | log10(CFU/ml) after treatment, single replicates ([2]; printed on the line of concentration 5): 4.477 log10(CFU/ml) and 4.778 log10(CFU/ml) and =<4 log10(CFU/ml) | reduction of bacterial counts, non-growing P. aeruginosa ([2]; at 2.5 µM, 1:4 CA-MHB pH 7.4, 24 h treatment): more than four | killing of non-growing P. aeruginosa ([2]; at 2.5 µM, 24 h treatment): > 4 log10
